According to PMC11900317, “KinasePred: A Computational Tool for Small-Molecule Kinase Target Prediction” (International Journal of Molecular Sciences, 2025):
Like-named read-outs stand apart in the source and are kept apart here. Blank lines part the entries; values can stand above or below the compound they belong to.

Assays:
Test in all cases: Z'-LYTE fluorescence kinase assay, single point
Format in all cases: biochemical
ROCK2 = biological target: T1, ROCK2 (Homo sapiens, UniProt O75116); settings: read-out: VS2
T1 construct: commercial kinase panel (Z'-LYTE, Thermo Fisher)
From the text: Z'-LYTE fluorescence kinase assay, single point on ROCK2

LRKK2 = biological target: T2, LRKK2 (Homo sapiens, UniProt Q5S007)
T2 construct: gene LRRK2; commercial kinase panel (Z'-LYTE, Thermo Fisher)
T2 sequence (Q5S007 whole entry): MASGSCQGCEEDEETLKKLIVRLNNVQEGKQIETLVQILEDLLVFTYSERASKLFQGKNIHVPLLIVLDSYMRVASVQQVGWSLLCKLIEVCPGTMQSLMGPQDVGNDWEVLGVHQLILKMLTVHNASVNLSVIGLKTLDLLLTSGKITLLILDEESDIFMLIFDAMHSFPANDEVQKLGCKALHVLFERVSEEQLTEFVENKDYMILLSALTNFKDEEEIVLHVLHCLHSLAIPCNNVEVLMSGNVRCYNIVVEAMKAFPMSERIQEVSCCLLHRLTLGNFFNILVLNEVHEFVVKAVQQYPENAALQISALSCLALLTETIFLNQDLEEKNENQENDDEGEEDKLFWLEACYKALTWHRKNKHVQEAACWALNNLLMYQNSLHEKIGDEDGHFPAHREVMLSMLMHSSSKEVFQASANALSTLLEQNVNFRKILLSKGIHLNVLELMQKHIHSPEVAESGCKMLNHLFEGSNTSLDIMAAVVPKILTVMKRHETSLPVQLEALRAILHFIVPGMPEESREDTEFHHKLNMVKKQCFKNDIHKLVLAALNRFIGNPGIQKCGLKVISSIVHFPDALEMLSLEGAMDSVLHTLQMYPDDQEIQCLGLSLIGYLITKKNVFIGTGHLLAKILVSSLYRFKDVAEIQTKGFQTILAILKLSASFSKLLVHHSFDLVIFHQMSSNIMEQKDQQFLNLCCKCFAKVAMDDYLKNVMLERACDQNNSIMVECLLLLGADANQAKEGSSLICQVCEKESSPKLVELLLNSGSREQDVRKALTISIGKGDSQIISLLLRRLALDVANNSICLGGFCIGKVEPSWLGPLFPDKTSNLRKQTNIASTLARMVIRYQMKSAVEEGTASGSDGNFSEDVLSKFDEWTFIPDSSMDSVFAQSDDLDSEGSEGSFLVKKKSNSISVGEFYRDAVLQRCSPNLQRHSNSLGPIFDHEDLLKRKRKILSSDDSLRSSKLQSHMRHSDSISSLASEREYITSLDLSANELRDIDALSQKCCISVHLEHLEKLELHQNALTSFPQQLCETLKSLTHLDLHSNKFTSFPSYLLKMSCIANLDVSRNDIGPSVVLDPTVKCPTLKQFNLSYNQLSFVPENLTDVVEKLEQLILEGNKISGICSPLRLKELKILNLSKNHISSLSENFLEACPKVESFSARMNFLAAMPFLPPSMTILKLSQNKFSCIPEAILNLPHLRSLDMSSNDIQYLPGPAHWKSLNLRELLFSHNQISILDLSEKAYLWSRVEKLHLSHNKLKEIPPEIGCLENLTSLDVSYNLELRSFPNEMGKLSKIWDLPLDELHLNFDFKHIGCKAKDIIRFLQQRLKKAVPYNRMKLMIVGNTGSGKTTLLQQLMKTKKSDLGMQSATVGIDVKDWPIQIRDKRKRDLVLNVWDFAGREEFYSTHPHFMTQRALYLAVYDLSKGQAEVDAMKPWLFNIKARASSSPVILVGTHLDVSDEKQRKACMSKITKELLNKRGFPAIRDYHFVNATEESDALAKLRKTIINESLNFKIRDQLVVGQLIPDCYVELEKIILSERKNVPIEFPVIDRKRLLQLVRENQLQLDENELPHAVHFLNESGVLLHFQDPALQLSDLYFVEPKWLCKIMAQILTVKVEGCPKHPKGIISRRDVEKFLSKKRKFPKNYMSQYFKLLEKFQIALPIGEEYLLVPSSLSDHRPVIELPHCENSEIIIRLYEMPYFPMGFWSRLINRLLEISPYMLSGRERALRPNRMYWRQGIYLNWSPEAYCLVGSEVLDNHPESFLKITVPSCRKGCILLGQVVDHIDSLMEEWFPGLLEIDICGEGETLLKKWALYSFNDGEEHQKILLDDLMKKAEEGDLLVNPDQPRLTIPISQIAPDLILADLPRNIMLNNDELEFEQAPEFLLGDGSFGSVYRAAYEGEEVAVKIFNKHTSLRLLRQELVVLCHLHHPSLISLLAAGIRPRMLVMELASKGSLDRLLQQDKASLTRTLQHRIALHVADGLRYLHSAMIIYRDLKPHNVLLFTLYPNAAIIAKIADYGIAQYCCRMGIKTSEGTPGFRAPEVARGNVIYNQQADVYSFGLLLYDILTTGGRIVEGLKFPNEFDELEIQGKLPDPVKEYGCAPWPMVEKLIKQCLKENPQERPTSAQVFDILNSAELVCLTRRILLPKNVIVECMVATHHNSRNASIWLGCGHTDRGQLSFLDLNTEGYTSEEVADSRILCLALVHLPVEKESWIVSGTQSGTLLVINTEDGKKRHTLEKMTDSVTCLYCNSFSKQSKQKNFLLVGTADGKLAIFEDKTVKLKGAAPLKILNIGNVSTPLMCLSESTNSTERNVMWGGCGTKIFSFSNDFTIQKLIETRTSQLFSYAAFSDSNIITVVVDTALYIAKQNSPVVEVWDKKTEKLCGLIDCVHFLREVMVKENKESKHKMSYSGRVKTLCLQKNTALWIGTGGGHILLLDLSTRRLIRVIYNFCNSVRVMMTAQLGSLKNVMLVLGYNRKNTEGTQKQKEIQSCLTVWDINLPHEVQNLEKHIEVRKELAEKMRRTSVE
From the text: Z'-LYTE fluorescence kinase assay, single point on LRKK2

CSF1R = biological target: T3, CSF1R (Homo sapiens, UniProt P07333)
T3 construct: commercial kinase panel (Z'-LYTE, Thermo Fisher)
T3 sequence (P07333 20-972): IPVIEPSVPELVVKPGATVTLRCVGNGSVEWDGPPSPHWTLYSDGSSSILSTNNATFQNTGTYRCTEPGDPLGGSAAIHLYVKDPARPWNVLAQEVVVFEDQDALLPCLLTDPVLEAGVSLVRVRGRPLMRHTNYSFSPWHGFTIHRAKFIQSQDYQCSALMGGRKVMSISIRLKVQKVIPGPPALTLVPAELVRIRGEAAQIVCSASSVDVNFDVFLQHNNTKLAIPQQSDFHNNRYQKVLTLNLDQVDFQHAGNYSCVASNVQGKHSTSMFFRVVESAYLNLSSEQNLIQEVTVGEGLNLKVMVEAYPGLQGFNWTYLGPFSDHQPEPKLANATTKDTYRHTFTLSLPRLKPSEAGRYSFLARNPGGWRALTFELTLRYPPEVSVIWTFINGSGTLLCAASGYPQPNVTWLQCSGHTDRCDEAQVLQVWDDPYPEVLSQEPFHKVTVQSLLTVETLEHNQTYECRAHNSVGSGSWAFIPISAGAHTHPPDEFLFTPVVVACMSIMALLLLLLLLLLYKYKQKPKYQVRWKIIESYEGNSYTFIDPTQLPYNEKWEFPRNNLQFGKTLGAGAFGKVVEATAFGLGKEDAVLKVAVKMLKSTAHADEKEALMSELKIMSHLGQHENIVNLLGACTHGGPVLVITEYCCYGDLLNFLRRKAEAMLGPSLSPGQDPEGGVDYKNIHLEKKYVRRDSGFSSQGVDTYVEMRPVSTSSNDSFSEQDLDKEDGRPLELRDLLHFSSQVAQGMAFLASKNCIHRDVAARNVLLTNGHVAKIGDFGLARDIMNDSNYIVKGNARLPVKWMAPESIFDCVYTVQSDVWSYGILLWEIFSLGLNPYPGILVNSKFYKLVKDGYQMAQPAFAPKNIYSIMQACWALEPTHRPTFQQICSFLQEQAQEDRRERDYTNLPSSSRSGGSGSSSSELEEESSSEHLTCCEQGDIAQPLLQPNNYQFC
From the text: Z'-LYTE fluorescence kinase assay, single point on CSF1R

MAPK8 = biological target: T4, MAPK8 (Homo sapiens, UniProt P45983); settings: read-out: VS6
T4 construct: commercial kinase panel (Z'-LYTE, Thermo Fisher)
T4 sequence (P45983 whole entry): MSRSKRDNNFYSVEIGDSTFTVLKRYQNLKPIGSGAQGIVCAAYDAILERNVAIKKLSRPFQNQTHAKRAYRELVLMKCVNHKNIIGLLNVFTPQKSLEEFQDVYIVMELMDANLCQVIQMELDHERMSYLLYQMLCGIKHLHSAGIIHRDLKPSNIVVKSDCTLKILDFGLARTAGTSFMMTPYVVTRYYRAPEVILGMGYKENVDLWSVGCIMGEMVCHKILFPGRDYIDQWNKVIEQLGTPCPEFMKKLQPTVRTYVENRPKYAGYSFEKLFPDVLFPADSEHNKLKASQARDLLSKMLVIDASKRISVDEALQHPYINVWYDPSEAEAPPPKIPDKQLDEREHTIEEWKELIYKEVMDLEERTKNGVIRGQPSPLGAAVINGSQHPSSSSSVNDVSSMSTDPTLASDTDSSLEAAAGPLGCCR
From the text: Z'-LYTE fluorescence kinase assay, single point on MAPK8

SYK = biological target: T5, SYK (Homo sapiens, UniProt P43405)
T5 construct: commercial kinase panel (Z'-LYTE, Thermo Fisher)
From the text: Z'-LYTE fluorescence kinase assay, single point on SYK

NTRK1 = biological target: T6, NTRK1 (Homo sapiens, UniProt P04629); settings: read-out: VS7
T6 construct: commercial kinase panel (Z'-LYTE, Thermo Fisher)
T6 sequence (P04629 33-796): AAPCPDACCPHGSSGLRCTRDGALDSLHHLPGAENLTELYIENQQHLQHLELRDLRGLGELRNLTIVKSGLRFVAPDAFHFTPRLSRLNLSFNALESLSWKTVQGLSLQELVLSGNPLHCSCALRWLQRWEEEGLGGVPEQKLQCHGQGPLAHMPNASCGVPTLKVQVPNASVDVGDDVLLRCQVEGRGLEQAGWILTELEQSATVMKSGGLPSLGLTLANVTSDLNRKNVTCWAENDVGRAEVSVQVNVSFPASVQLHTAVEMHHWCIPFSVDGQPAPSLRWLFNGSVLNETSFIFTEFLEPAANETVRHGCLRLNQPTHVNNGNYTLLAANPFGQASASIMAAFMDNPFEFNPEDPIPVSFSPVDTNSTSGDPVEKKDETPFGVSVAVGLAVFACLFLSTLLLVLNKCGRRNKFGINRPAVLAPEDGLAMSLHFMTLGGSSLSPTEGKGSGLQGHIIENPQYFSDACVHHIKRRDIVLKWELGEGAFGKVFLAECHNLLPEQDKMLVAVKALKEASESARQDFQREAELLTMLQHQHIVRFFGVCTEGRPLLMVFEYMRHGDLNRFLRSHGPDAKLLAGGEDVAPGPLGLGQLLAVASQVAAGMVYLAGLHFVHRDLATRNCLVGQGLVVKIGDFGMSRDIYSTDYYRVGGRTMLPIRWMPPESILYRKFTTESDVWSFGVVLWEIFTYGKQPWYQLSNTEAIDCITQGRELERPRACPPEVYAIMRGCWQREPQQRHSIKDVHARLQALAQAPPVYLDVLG
From the text: Z'-LYTE fluorescence kinase assay, single point on NTRK1

LCK = biological target: T7, LCK (Homo sapiens, UniProt P06239); settings: read-out: VS7
T7 construct: commercial kinase panel (Z'-LYTE, Thermo Fisher)
From the text: Z'-LYTE fluorescence kinase assay, single point on LCK

PTK2 = biological target: T8, PTK2 (Homo sapiens, UniProt Q05397); settings: read-out: VS7
T8 construct: commercial kinase panel (Z'-LYTE, Thermo Fisher)
From the text: Z'-LYTE fluorescence kinase assay, single point on PTK2

IRAK4 = biological target: T9, IRAK4 (Homo sapiens, UniProt Q9NWZ3); settings: read-out: VS7
T9 construct: commercial kinase panel (Z'-LYTE, Thermo Fisher)
T9 sequence (Q9NWZ3 1-460): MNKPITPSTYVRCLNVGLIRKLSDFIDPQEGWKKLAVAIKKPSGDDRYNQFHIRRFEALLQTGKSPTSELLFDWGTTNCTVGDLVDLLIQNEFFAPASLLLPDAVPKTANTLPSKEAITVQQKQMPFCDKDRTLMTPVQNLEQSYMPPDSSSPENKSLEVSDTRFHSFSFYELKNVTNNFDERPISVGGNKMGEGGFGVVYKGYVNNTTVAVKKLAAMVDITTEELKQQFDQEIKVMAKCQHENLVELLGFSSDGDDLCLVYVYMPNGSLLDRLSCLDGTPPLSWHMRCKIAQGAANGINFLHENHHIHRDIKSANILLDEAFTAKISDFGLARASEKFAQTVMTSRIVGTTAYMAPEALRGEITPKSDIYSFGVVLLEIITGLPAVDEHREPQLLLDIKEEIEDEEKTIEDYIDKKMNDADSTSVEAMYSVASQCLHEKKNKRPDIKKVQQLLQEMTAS
From the text: Z'-LYTE fluorescence kinase assay, single point on IRAK4

inhibition at 10 µM (ROCK2): 74% | inhibition at 10 µM (LRKK2; read-out: VS2): 50%
Structure (SMILES): O=C(Nc1ccncc1)c1cccc(C(F)(F)F)c1 [VS2]

inhibition at 10 µM (LRKK2; read-out: VS3): 54%
Structure (SMILES): COc1cc(/C=C(/C#N)C(=O)c2ccccc2)ccc1O [VS3]

inhibition at 10 µM (CSF1R; read-out: VS5): 54%
Structure (SMILES): Cc1cc(C(=O)Nc2scc(-c3ccc(C)c(C)c3)c2C(N)=O)no1 [VS5]

inhibition at 10 µM (MAPK8): 63% | inhibition at 10 µM (LRKK2; read-out: VS6): 60% | inhibition at 10 µM (CSF1R; read-out: VS6): 89% | inhibition at 10 µM (SYK; read-out: VS6): 57%
Structure (SMILES): c1ccc(Nc2nccc(-c3ccsc3)n2)cc1 [VS6]

inhibition at 10 µM (NTRK1): 90% | inhibition at 10 µM (LCK): 53% | inhibition at 10 µM (LRKK2; read-out: VS7): 100% | inhibition at 10 µM (CSF1R; read-out: VS6): 89% | inhibition at 10 µM (SYK; read-out: VS7): 90% | inhibition at 10 µM (PTK2): 66% | inhibition at 10 µM (IRAK4): 80%
Structure (SMILES): NC(=O)c1ccc(Nc2nc(NCc3ccco3)c3ccccc3n2)cc1 [VS7]
